Reference: the NIST ThermoML archive (doi:10.1016/j.jct.2017.07.011)

Experiment: xn = mol fraction of the nth substance listed
Conditions: 100 kPa, Liquid, Vibrating tube method

CCC(C)(C)O [2-methylbutan-2-ol] + O
mass density [kg/m3]
Conditions | x1 = 0.00122 | x1 = 0.00255 | x1 = 0.00412 | x1 = 0.00507 | x1 = 0.00607 | x1 = 0.0079 | x1 = 0.00994 | x1 = 0.01252 | x1 = 0.01488 | x1 = 1
273.65 K | 999.033 | 998.16 | 997.224 | 996.687 | 996.151 | 995.216 | 994.277 | 993.23 | 992.364 | 826.7
274.15 K | 999.058 | 998.181 | 997.247 | 996.703 | 996.17 | 995.235 | 994.284 | 993.232 | 992.356 | 826.3
274.65 K | 999.08 | 998.206 | 997.266 | 996.721 | 996.184 | 995.25 | 994.296 | 993.233 | 992.353 | 825.8
275.15 K | 999.099 | 998.222 | 997.286 | 996.74 | 996.2 | 995.262 | 994.3 | 993.231 | 992.341 | 825.4
275.65 K | 999.114 | 998.237 | 997.295 | 996.749 | 996.207 | 995.267 | 994.301 | 993.227 | 992.328 | 824.9
276.15 K | 999.13 | 998.247 | 997.305 | 996.76 | 996.213 | 995.266 | 994.297 | 993.215 | 992.313 | 824.5
276.65 K | 999.132 | 998.253 | 997.309 | 996.765 | 996.216 | 995.269 | 994.293 | 993.203 | 992.291 | 824
277.15 K | 999.134 | 998.251 | 997.307 | 996.759 | 996.215 | 995.258 | 994.279 | 993.181 | 992.265 | 823.5
277.65 K | 999.129 | 998.246 | 997.299 | 996.748 | 996.2 | 995.243 | 994.261 | 993.157 | 992.23 | 823.1
278.15 K | 999.126 | 998.235 | 997.295 | 996.741 | 996.193 | 995.233 | 994.246 | 993.13 | 992.197 | 822.6
278.65 K | 999.113 | 998.23 | 997.279 | 996.728 | 996.177 | 995.217 | 994.22 | 993.102 | 992.159 | 822.2
279.15 K | 999.102 | 998.216 | 997.265 | 996.713 | 996.158 | 995.193 | 994.199 | 993.072 | 992.123 | 821.7
279.65 K | 999.075 | 998.186 | 997.235 | 996.681 | 996.124 | 995.158 | 994.162 | 993.023 | 992.067 | 821.3
280.15 K | 999.056 | 998.17 | 997.213 | 996.659 | 996.101 | 995.132 | 994.13 | 992.984 | 992.025 | 820.8
280.65 K | 999.032 | 998.146 | 997.189 | 996.631 | 996.074 | 995.095 | 994.093 | 992.943 | 991.972 | 820.3
281.15 K | 999.006 | 998.115 | 997.154 | 996.599 | 996.039 | 995.06 | 994.049 | 992.894 | 991.918 | 819.9
281.65 K | 998.97 | 998.079 | 997.123 | 996.561 | 996 | 995.021 | 994.007 | 992.846 | 991.86 | 819.4
282.15 K | 998.939 | 998.044 | 997.086 | 996.522 | 995.962 | 994.976 | 993.958 | 992.79 | 991.8 | 819
